These results are taken from patent publication US20050054559A1, “Compounds for sustained release of orally delivered drugs” (priority 2000, published 2005).

Data set [1] can be described thus: Secretion in bile following oral administration to bile duct-cannulated rats. Type of data set: in vivo, rat. The conditions noted are these: single oral dose of (4) 85.25 mg/kg. Here is the method:
Sustained release of gabapentin from a prodrug that is subject to enterohepatic recirculation requires that a proportion of the intact prodrug be absorbed after oral administration and subsequently secreted into the bile intact. The potential for enterohepatic recirculation of intact (4) was examined in rats with indwelling bile duct fistulae. […] Bile was collected continuously in aliquots over 24 hours. Plasma and bile samples were frozen at −80° C. until analyzed. Concentrations of (4) or gabapentin in plasma samples were deermined by LC/MS/MS as described in Example 38. Concentrations of intact […] in bile were similarly deermined by LC/MS/MS. Bile (20 μL) was diluted 1:1000 with methanol and injected directly onto the HPLC system. Concentrations of (4) in bile reached a maximum at ˜6 hours post-dosing and were sustained up to 24 hours.

For data set [2], the target named is T1, LBAT (Homo sapiens, UniProt Q14973).
T1 construct: expressed in transfected cells; host or cells: CHO cells
Put plainly: Inhibition of radiolabeled taurocholate uptake in LBAT-transfected CHO cells. The format is cell-based. Particulars: radiolabeled competition assay in transporter-expressing CHO cells. Here is the method:
CHO cells transfected with either the IBAT or LBAT transporter were seeded into 96-well microtiter plates at 100,000 cells/well in 100 μL DMEM containing 10% serum, glutamine and Penstrep. After overnight incubation the media was removed and test compound (25 μL) added at 2× the final desired concentration. Tritiated taurocholate (50,000 CPM/well) was diluted with cold substrate to a final concentration of 5 μM and 25 μL/well of this mixture was added to the plate. After incubating for 1 h at room temperature the solution was removed and the plate washed 4× with PBS at 4° C. 200 μL/well of scintillant is added and the plate then read in a Wallac microbeta counter. The inhibition data is processed by standard methods to calculate an inhibition constant Ki for the test compound.

In data set [3] the target is IBAT (Homo sapiens, UniProt Q12908). Put plainly: Electrogenic transport in Xenopus oocytes expressing IBAT. Type of data set: cell-based. An excerpt:
(§1) RNA preparation: Human IBAT and LBAT Transporter cDNAs were subcloned into a modified pGEM plasmid that contains 5′ and 3′ untranslated sequences from the Xenopus β-actin gene. These sequences increase RNA stability and protein expression. Plasmid cDNA was linearized and used as template for in vitro transcription (Epicentre Technologies transcription kit, 4:1 methylated:non-methylated GTP).
(§2) Xenopus oocyte isolation. Xenopus laevis frogs were anesthetized by immersion in Tricaine ([…] in deionized water) for 15 min. Oocytes were removed and digested in frog ringer solution (90 mM NaCl, 2 mM KCl, 1 mM MgCl2, 10 mM NaHEPES, pH 7.45, no CaCl2) with 1 mg/mL collagenase (Worthington Type 3) for 80-100 min with shaking. The oocytes were washed 6 times, and the buffer changed to frog ringer solution containing CaCl2 (1.8 mM). Remaining follicle cells were removed if necessary. Cells were incubated at 16° C., and each oocyte injected with […] RNA in […] solution.
Electrophysiology measurements. Transport currents were measured 2-14 days after injection, using a standard two-electrode electrophysiology set-up (Geneclamp 500 amplifier, Digidata 1320/PCLAMP software and ADInstruments hardware and software were used for signal acquisition). Electrodes ([…]) were microfabricated using a Sutter Instrument puller and filled with 3M KCl. The bath was directly grounded (transporter currents were less than 0.3 μA). Bath flow was controlled by an automated perfusion system (ALA Scientific Instruments, solenoid valves).
For transporter pharmacology, oocytes were clamped at −60 to −90 mV, and continuous current measurements acquired using PowerLab Software and an ADInstruments digitizer. Current signals were lowpass filtered at 20 Hz and acquired at 4-8 Hz. All bath and drug-containing solutions were frog ringers solution containing CaCl2. Drugs were applied for 10-30 seconds until the induced current reached a new steady-state level, followed by a control solution until baseline currents returned to levels that preceded drug application. The difference current (baseline subtracted from peak current during drug application) reflected the net movement of charge resulting from electrogenic transport and was directly proportional to tranport rate. Recordings were made from a single oocyte for up to 60 min, enabling 30-40 separate compounds to be tested per oocyte. […]. Using this normalization procedure Vmax (i.e. maximal induced current) for different compounds tested on different oocytes could be compared.

Data set [4] deals with T2, LBAT (Homo sapiens, UniProt Q14973).
T2 sequence (Q14973 1-349): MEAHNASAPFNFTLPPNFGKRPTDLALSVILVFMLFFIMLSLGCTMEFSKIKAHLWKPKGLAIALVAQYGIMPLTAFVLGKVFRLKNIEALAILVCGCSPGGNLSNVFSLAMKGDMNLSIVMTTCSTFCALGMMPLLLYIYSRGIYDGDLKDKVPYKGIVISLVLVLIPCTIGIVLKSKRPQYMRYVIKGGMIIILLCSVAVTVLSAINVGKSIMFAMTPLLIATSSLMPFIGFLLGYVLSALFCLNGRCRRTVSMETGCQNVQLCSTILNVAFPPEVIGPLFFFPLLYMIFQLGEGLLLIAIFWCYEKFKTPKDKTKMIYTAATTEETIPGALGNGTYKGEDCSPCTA
Kind of data set: Electrogenic transport in Xenopus oocytes expressing LBAT. Type of data set: cell-based.
Text: as §1, §2
Electrophysiology measurements. Transport currents were measured 2-14 days after injection, using a standard two-electrode electrophysiology set-up (Geneclamp 500 amplifier, Digidata 1320/PCLAMP software and ADInstruments hardware and software were used for signal acquisition). Electrodes ([…]) were microfabricated using a Sutter Instrument puller and filled with 3M KCl. […]

Usually IC50 stands for the point on the concentration scale where inhibition reaches its midpoint. Read a high IC50 as lower potency. One may read the EC50 as the concentration at which the effect is half-maximal. High values mean a less potent agent, low ones a more potent agent.

Sequence of IBAT (Q12908 whole entry): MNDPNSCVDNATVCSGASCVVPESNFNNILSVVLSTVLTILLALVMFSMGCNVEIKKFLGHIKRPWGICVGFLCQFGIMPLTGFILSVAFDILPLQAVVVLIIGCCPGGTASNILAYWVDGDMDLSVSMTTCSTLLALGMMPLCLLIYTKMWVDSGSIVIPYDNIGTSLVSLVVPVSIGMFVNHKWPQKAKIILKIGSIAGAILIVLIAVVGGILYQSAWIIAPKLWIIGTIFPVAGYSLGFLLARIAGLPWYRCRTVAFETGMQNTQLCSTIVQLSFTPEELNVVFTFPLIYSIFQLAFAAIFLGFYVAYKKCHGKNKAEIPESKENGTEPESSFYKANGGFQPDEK

`CC(CCC(=O)NCC1(CC(=O)O)CCCCC1)C1CCC2C3C(O)CC4CC(O)CCC4(C)C3CC(O)C12C` (centres unmarked) [Compound (4)]: the “concentrations of (4) in bile sustained up to” value in data set [1] (bile duct-cannulated rats) is given as “up to 24 hours”. Further, the “time of maximum concentration of (4) in bile” value in data set [1] (bile duct-cannulated rats, post-dosing) was roughly 6 h. The “gabapentin in plasma of bile duct-cannulated rats” value in data set [1] was “no gabapentin was detected”. The half-maximal inhibitory concentration (IC50) in data set [2] came out at 8 µM. The EC50 in data set [3] is 70 µM; in data set [4] it was 19 µM. In addition, the figures for the “% Max. (GDC)” value in data set [3] (relative to glycodeoxycholate) and in data set [4] (relative to glycodeoxycholate) were 67% and 38%, respectively.
